According to patent publication US9926281B2 (priority 2014, dated 2018):
Read-outs that look alike come from different tables or passages of the source.

Assays:
human MMP13 = human MMP13 (Homo sapiens (Human), UniProt P45452); settings: read-out: hMMP-13 potency IC50
Experimental: Human MMP13 is preactivated by incubated the enzyme in the same buffer complemented with 1 mM freshly prepared p-Aminophenylmercuric acetate (AMPA) for 1 hour at 37° C.

human TACE = human TACE (Homo sapiens (Human), UniProt P78536); settings: read-out: TACE potency IC50
rnADAMTS-5 (1-564-6H) = rnADAMTS-5 (1-564-6H) (Rattus norvegicus, UniProt Q6TY19); settings: read-out: Rat ADAMTS-5 potency IC50
human ADAMTS-5 [1] = molecular target: T1, human ADAMTS-5 (Homo sapiens (Human), UniProt Q9UNA0); settings: read-out: hADAMTS-5 potency IC50
human ADAMTS-5 [2] = molecular target: T1, human ADAMTS-5; settings: read-out: hADAMTS-5 potency IC50; remark: listed apart in the source
Experimental: Finally, the fluorescence is read on the Envision (Perkin Elmer) after an incubation of 90 min at 37° C.

human MMP14 = human MMP14 (Homo sapiens (Human), UniProt P50281); settings: read-out: hMMP-14 potency IC50

human TACE, sequence (P78536 whole entry, looked up, change not shown): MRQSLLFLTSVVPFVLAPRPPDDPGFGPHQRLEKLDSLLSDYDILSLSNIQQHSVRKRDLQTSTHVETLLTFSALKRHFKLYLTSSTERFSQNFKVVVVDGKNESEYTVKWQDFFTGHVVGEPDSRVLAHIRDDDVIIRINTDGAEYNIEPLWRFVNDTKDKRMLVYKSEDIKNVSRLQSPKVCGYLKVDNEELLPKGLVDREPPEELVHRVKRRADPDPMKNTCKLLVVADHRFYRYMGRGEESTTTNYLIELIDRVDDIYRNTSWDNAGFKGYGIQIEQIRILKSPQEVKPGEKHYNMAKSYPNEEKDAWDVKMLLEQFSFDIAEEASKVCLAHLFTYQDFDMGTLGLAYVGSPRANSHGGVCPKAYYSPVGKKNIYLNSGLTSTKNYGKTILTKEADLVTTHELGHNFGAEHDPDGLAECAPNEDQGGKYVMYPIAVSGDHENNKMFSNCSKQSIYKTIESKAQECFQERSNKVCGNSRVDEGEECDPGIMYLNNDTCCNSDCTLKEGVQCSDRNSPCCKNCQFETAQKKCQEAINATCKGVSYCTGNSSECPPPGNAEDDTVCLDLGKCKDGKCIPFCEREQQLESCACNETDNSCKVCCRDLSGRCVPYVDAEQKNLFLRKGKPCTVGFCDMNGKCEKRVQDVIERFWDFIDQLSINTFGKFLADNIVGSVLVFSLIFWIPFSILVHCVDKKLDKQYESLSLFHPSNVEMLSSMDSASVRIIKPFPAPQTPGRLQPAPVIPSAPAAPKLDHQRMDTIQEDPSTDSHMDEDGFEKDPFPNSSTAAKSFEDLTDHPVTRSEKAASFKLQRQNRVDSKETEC
T1 sequence (Q9UNA0 262-930): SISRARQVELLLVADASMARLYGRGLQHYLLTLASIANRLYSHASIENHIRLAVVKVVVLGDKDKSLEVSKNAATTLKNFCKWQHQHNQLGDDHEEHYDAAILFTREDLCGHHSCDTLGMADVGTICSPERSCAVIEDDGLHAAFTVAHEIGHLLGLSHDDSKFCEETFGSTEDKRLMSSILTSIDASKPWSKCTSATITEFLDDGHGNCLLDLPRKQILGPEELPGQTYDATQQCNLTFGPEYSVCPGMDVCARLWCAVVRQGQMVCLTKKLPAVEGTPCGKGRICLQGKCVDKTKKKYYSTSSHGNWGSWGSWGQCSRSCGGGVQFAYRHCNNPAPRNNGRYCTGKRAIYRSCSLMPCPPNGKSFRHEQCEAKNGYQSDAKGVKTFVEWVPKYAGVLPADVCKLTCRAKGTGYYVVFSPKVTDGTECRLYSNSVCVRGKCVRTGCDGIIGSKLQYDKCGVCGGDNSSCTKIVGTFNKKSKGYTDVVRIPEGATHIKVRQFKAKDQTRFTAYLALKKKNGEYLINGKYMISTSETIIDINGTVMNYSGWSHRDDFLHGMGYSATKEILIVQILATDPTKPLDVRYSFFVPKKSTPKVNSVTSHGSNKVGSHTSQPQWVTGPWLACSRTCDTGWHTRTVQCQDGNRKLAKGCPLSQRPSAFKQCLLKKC

Structure (SMILES) | IC50 (human MMP13) | IC50 (human TACE) | IC50 (rnADAMTS-5 (1-564-6H)) | IC50 (human ADAMTS-5 [1]) | IC50 (human ADAMTS-5 [2]) | IC50 (human MMP14)
O=C1NC(=O)C(CCC(=O)N2CCN(c3ccc(F)c(F)c3)CC2)(C2CC2)N1 (stereo not shown) [compound 113, 5-cyclopropyl-5-[3-[4-(3,4-difluorophenyl)piperazin-1-yl]-3-oxo-propyl]imidazolidine-2,4-dione] | 3620 nM | > 20000 nM | 91 nM | 104 nM | – | –
O=C1NC(=O)C(CCC(=O)N2CCN(c3ccc(F)c(Cl)c3)CC2)(C2CC2)N1 (stereo not shown) [compound 114, 5-[3-[4-(3-chloro-4-fluoro-phenyl)piperazin-1-yl]-3-oxo-propyl]-5-cyclopropyl-imidazolidine-2,4-dione] | 2580 nM | > 20000 nM | 62 nM | 67 nM | – | –
CC(CC1(C2CC2)NC(=O)NC1=O)C(=O)N1CCN(c2cccc(Cl)c2)CC1 (stereo not shown) [compound 121, 5-[3-[4-(3-chlorophenyl)piperazin-1-yl]-2-methyl-3-oxo-propyl]-5-cyclopropyl-imidazolidine-2,4-dione] | 70.6 nM | 1100 nM | 24 nM | 15 nM | 15 nM | –
C[C@H]1CN(C(=O)CCC2(c3ccccc3)NC(=O)NC2=O)CCN1c1ccccc1 (stereo partly drawn) [compound 137, 5-[3-[(3S)-3-methyl-4-phenyl-piperazin-1-yl]-3-oxo-propyl]-5-phenyl-imidazolidine-2,4-dione] | > 20000 nM | > 20000 nM | 249 nM | 240 nM | – | –
O=C1NC(=O)C(CCC(=O)N2CCN(c3ccccc3)CC2)(C2CC2)N1 (stereo not shown) [compound 138, 5-cyclopropyl-5-[3-oxo-3-(4-phenylpiperazin-1-yl)propyl]imidazolidine-2,4-dione] | > 4000 nM | > 20000 nM | 107 nM | 101 nM | – | –
COCC1(CC(C)C(=O)N2CCN(c3cc(Cl)cc(Cl)c3C)[C@@H](C)C2)NC(=O)NC1=O (stereo partly drawn) [compound 227, 5-[3-[(3S)-4-(3,5-dichloro-2-methyl-phenyl)-3-methyl-piperazin-1-yl]-2-methyl-3-oxo-propyl]-5-(methoxymethyl)imidazolidine-2,4-dione] | – | – | – | – | – | > 20000 nM
CC(CC1NC(=O)NC1=O)C(=O)N1CCN(c2ccc(F)c(F)c2)[C@@H](C)C1 (stereo partly drawn) [compound 251, 5-[3-[(3S)-4-(3,4-difluorophenyl)-3-methyl-piperazin-1-yl]-2-methyl-3-oxo-propyl]imidazolidine-2,4-dione] | – | > 12000 nM | – | – | 94 nM | > 4000 nM
C[C@H]1CN(C(=O)CCC2(C3CC3)NC(=O)NC2=O)CCN1c1cccnc1 (stereo partly drawn) [compound 259, 5-cyclopropyl-5-[3-[(3S)-3-methyl-4-(3-pyridyl)piperazin-1-yl]-3-oxo-propyl]imidazolidine-2,4-dione] | – | > 20000 nM | – | – | 224 nM | > 20000 nM
C[C@H]1CN(C(=O)CCC2(C3CC3)NC(=O)NC2=O)CCN1c1cncc(Cl)c1 (stereo partly drawn) [compound 260, 5-[3-[(3S)-4-(5-chloro-3-pyridyl)-3-methyl-piperazin-1-yl]-3-oxo-propyl]-5-cyclopropyl-imidazolidine-2,4-dione] | – | > 20000 nM | – | – | 126 nM | > 20000 nM
C[C@H]1CN(C(=O)CCC2(C3CC3)NC(=O)NC2=O)CCN1c1cncc(F)c1 (stereo partly drawn) [compound 261, 5-cyclopropyl-5-[3-[(3S)-4-(5-fluoro-3-pyridyl)-3-methyl-piperazin-1-yl]-3-oxo-propyl]imidazolidine-2,4-dione] | – | > 20000 nM | – | – | 165 nM | > 20000 nM
C[C@H]1CN(C(=O)CCC2(C3CC3)NC(=O)NC2=O)CCN1c1cccc(Br)c1 (stereo partly drawn) [compound 270, 5-[3-[(3S)-4-(3-bromophenyl)-3-methyl-piperazin-1-yl]-3-oxo-propyl]-5-cyclopropyl-imidazolidine-2,4-dione] | – | > 4000 nM | – | – | 76 nM | > 4000 nM
CC(CC1(C)NC(=O)NC1=O)C(=O)N1CCN(c2cncc(Cl)c2)[C@@H](C)C1 (stereo partly drawn) [compound 276, 5-[3-[(3S)-4-(5-chloro-3-pyridyl)-3-methyl-piperazin-1-yl]-2-methyl-3-oxo-propyl]-5-methyl-imidazolidine-2,4-dione] | – | > 4000 nM | – | – | 115 nM | > 20000 nM
CC(CC1(C)NC(=O)NC1=O)C(=O)N1CCN(c2cncc(F)c2)[C@@H](C)C1 (stereo partly drawn) [compound 277, 5-[3-[(3S)-4-(5-fluoro-3-pyridyl)-3-methyl-piperazin-1-yl]-2-methyl-3-oxo-propyl]-5-methyl-imidazolidine-2,4-dione] | – | > 4000 nM | – | – | 152 nM | > 20000 nM
C[C@H]1CN(C(=O)CCC2(C3CC3)NC(=O)NC2=O)CCN1c1cccc(-c2cn[nH]c2)c1 (stereo partly drawn) [compound 282, 5-cyclopropyl-5-[3-[(3S)-3-methyl-4-[3-(1H-pyrazol-4-yl)phenyl]piperazin-1-yl]-3-oxo-propyl]imidazolidine-2,4-dione] | – | > 20000 nM | – | – | 110 nM | > 20000 nM
Cc1ccc(C2(CCC(=O)N3CCN(c4ccc(F)c(Cl)c4)[C@@H](C)C3)NC(=O)NC2=O)cn1 (stereo partly drawn) [compound 287, 5-[3-[(3S)-4-(3-chloro-4-fluoro-phenyl)-3-methyl-piperazin-1-yl]-3-oxo-propyl]-5-(6-methyl-3-pyridyl)imidazolidine-2,4-dione] | – | > 4000 nM | – | – | 52 nM | > 4000 nM
C[C@H]1CN(C(=O)CCC2(c3ccncc3)NC(=O)NC2=O)CCN1c1ccc(F)c(Cl)c1 (stereo partly drawn) [compound 288, 5-[3-[(3S)-4-(3-chloro-4-fluoro-phenyl)-3-methyl-piperazin-1-yl]-3-oxo-propyl]-5-(4-pyridyl)imidazolidine-2,4-dione] | – | > 4000 nM | – | – | 72 nM | > 4000 nM
Cc1cccc(C2(CCC(=O)N3CCN(c4cc(F)cc(Cl)c4)[C@@H](C)C3)NC(=O)NC2=O)n1 (stereo partly drawn) [compound 307, 5-[3-[(3S)-4-(3-chloro-5-fluoro-phenyl)-3-methyl-piperazin-1-yl]-3-oxo-propyl]-5-(6-methyl-2-pyridyl)imidazolidine-2,4-dione] | – | 3590 nM | – | – | 44 nM | > 20000 nM
Cc1cccc(C2(CCC(=O)N3CCN(c4cccc(F)c4)[C@@H](C)C3)NC(=O)NC2=O)n1 (stereo partly drawn) [compound 308, 5-[3-[(3S)-4-(3-fluorophenyl)-3-methyl-piperazin-1-yl]-3-oxo-propyl]-5-(6-methyl-2-pyridyl)imidazolidine-2,4-dione] | – | > 4000 nM | – | – | 59 nM | > 20000 nM
Cc1cccc(C2(CCC(=O)N3CCN(c4cc(F)cc(F)c4)[C@@H](C)C3)NC(=O)NC2=O)n1 (stereo partly drawn) [compound 309, 5-[3-[(3S)-4-(3,5-difluorophenyl)-3-methyl-piperazin-1-yl]-3-oxo-propyl]-5-(6-methyl-2-pyridyl)imidazolidine-2,4-dione] | – | > 4000 nM | – | – | 31 nM | > 20000 nM
CC(CC1(C2CC2)NC(=O)NC1=O)C(=O)N1CCN(c2cncc(F)c2)[C@@H](C)C1 (stereo partly drawn) [compound 313, 5-cyclopropyl-5-[3-[(3S)-4-(5-fluoro-3-pyridyl)-3-methyl-piperazin-1-yl]-2-methyl-3-oxo-propyl]imidazolidine-2,4-dione] | – | > 20000 nM | – | – | 34 nM | > 20000 nM
C[C@H]1CN(C(=O)CCC2(c3cccnc3)NC(=O)NC2=O)CCN1c1ccc(F)c(Cl)c1 (stereo partly drawn) [compound 316, 5-[3-[(3S)-4-(3-chloro-4-fluoro-phenyl)-3-methyl-piperazin-1-yl]-3-oxo-propyl]-5-(3-pyridyl)imidazolidine-2,4-dione] | – | > 4000 nM | – | – | 61 nM | > 20000 nM
C[C@H]1CN(C(=O)CCC2(c3cccnc3)NC(=O)NC2=O)CCN1c1cc(F)cc(Cl)c1 (stereo partly drawn) [compound 317, 5-[3-[(3S)-4-(3-chloro-5-fluoro-phenyl)-3-methyl-piperazin-1-yl]-3-oxo-propyl]-5-(3-pyridyl)imidazolidine-2,4-dione] | – | > 4000 nM | – | – | 52 nM | 823 nM
C[C@H]1CN(C(=O)CCC2(c3cccnc3)NC(=O)NC2=O)CCN1c1cccc(F)c1 (stereo partly drawn) [compound 319, 5-[3-[(3S)-4-(3-fluorophenyl)-3-methyl-piperazin-1-yl]-3-oxo-propyl]-5-(3-pyridyl)imidazolidine-2,4-dione] | – | > 4000 nM | – | – | 94 nM | > 4000 nM
C[C@H]1CN(C(=O)CCC2(c3cccnc3)NC(=O)NC2=O)CCN1c1cc(F)cc(F)c1 (stereo partly drawn) [compound 320, 5-[3-[(3S)-4-(3,5-difluorophenyl)-3-methyl-piperazin-1-yl]-3-oxo-propyl]-5-(3-pyridyl)imidazolidine-2,4-dione] | – | > 4000 nM | – | – | 48 nM | > 20000 nM
C[C@H]1CN(C(=O)CCC2(c3cnccn3)NC(=O)NC2=O)CCN1c1cc(F)cc(Cl)c1 (stereo partly drawn) [compound 326, 5-[3-[(3S)-4-(3-chloro-5-fluoro-phenyl)-3-methyl-piperazin-1-yl]-3-oxo-propyl]-5-pyrazin-2-yl-imidazolidine-2,4-dione] | – | > 4000 nM | – | – | 52 nM | > 4000 nM
C[C@H]1CN(C(=O)CCC2(c3cnccn3)NC(=O)NC2=O)CCN1c1cc(F)cc(F)c1 (stereo partly drawn) [compound 327, 5-[3-[(3S)-4-(3,5-difluorophenyl)-3-methyl-piperazin-1-yl]-3-oxo-propyl]-5-pyrazin-2-yl-imidazolidine-2,4-dione] | – | > 4000 nM | – | – | 45 nM | > 4000 nM
C[C@H]1CN(C(=O)CCC2(c3cncnc3)NC(=O)NC2=O)CCN1c1cc(F)cc(F)c1 (stereo partly drawn) [compound 332, 5-[3-[(3S)-4-(3,5-difluorophenyl)-3-methyl-piperazin-1-yl]-3-oxo-propyl]-5-pyrimidin-5-yl-imidazolidine-2,4-dione] | – | > 20000 nM | – | – | 61 nM | 378 nM
